Several values for one entry are separate records, joined by “and”; a condition that tells them apart may be missing. Equal entries are not always repeated.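 48-hour exposure; five concentrations; linearly interpolated endpoints. GI50 is the concentration that inhibits growth by half. TGI denotes the concentration required for complete inhibition of growth.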
Experiments:
Assay in all cases: inhibition of tumour cell growth, NCI panel, 48 h
[1] = tested on: SK-MEL-5 melanoma
[2] = tested on: M14 melanoma
[3] = tested on: ACHN renal
[4] = tested on: SR leukemia
[5] = tested on: HCC-2998 colon
[6] = tested on: SNB-75 CNS
[7] = tested on: RPMI-8226 leukemia
[8] = tested on: SF-268 CNS

Compound	GI50 [1] [µM]	TGI [1]	GI50 [2] [µM]	TGI [2]	GI50 [3] [µM]	TGI [3]	GI50 [4] [µM]	TGI [4] [µM]	GI50 [5] [µM]	TGI [5] [µM]	GI50 [6] [µM]	TGI [6] [µM]	GI50 [7] [µM]	TGI [7] [µM]	GI50 [8] [µM]	TGI [8]
Clc1cc2c(cc1Cl)Oc1cc(Cl)c(Cl)cc1O2	> 0.625	> 0.625 µM	> 0.625	> 0.625 µM	> 0.625	> 0.625 µM	> 0.625	> 0.625	> 0.625	> 0.625	0.304	> 0.625	> 0.625	> 0.625	> 0.625	> 0.625 µM
CC1=C(/C=C/C(=O)O)C(C)(C)CCC1		> 100 µM		> 100 µM		> 100 µM		> 100		> 100		> 100		> 100		> 100 µM
COc1ccc2c(c1)=C(C=C1C=CN(O)C=C1)C(=O)N=2	22.8	63.9 µM	24.6	65.9 µM	23.5	> 100 µM	18.2	> 100	21.8	47	15.6	> 88.4	24.1	> 67.7	28.1	93.2 µM
O=C1C2C(C(=O)[N]1[Hg][c]1cccs1)C1(Cl)C(Cl)=C(Cl)C2(Cl)C1(Cl)Cl (centres undefined)	1.55	3.06 µM	1.14	2.68 µM	1.61	3.04 µM	0.146		1.97	3.59	1.37	4.81	1.41	6.38	1.41	2.84 µM
O=C(Nc1ccc(F)cc1)Nc1ccccc1CNc1nc(Nc2ccc(OCCN3CCCC3)cc2)ncc1Cl	1.55	4.98 µM	0.946	2 µM	1.26	3.15 µM	1.81	50	2.73	9.27	0.677	1.35	1.4	3.72	1.26	4.84 µM
CN(Cc1ccc(Cl)cc1)c1ccc(CO)c(Cl)c1	5.42	17.3 µM	8.33	22.3 µM	5.83	23.6 µM	13.1	54.8	9.36	22.1	7.06	26.4	5.51	> 52.3	14.2	29.5 µM
COc1ccc2c(c1O)C13CCN(C)C(C2)C1CCC1(C3)OCCO1 (centres undefined)		> 100 µM		> 100 µM		> 100 µM		> 100		> 100		> 100		> 100		> 100 µM
C/C=C/C/C=C/CCC(=O)[C@H]1O[C@H]1C(N)=O	12.5	25.2 µM	13.3	30 µM		26.9 µM	12.6	> 100	15	28.5	10	25	6.58	54.2		39.3 µM
CCN1/C(=C/C=C/c2n(-c3ccccc3)c3ccc(-c4nc5ccccc5s4)cc3[n+]2CC)N(c2ccccc2)c2ccc(-c3nc4ccccc4s3)cc21	0.184	1.27 µM	0.437	4.62 µM	0.622	> 50 µM	1.4	> 50	1.69	> 31.1	0.347	> 46.7	0.303	> 50	0.525	> 50 µM
Fc1ccc(-c2nn3c(-c4ccc(F)c(Cl)c4)nnc3s2)cc1	44.2	> 50 µM	> 50	> 50 µM	29.1	> 50 µM	43.8	> 50	> 50	> 50	11.3	30.4	22.8	> 50	38.7	> 50 µM
COc1cc2c(cc1OCCCCCOc1cc3c(cc1OC)C(=O)N1CC(F)C[C@H]1C=N3)N=C[C@@H]1CC(F)CN1C2=O (some centres undefined)	0.0511	0.127 µM	0.0275	0.272 µM	< 0.0169	0.167 µM	< 0.01		0.229	2.89	0.0488	> 100	< 0.0151	0.0622	< 0.01	1.19 µM
Cn1cc(C2=C(c3cn(CCO)c4ccccc34)C(=O)NC2=O)c2ccccc21	2.55	9.67 µM	2.12	> 25 µM	4	> 25 µM	1.02	> 23.3	5.56	> 23.6	0.634	6.5	5.33	16	4.19	15.4 µM
Nc1ccccc1-c1ccc([N+](=O)[O-])cc1	2.58	> 100 µM	97.7	> 100 µM	4.99	> 100 µM	29	> 100	2.25	8.54	> 100	> 100	4.95	> 100	12.9	> 100 µM
O=S(=O)(Cc1ccc(Cl)cc1Cl)c1ccc(Cl)cc1	0.437	24.4 µM	0.5	48.2 µM	1.04	> 100 µM	0.296	11	1.09	8.97	0.732	> 27.5	1.14	> 69.7	0.827	> 100 µM
Clc1ccc(/C=C/c2cc(N3CCOCC3)c3cc(Cl)c(Cl)cc3n2)cc1	> 100	> 100 µM	> 100	> 100 µM	> 100	> 100 µM	14.9	> 61.8	> 100	> 100	> 100	> 100	0.311	1.09	> 100	> 100 µM
S=C(N/N=C(/c1ccccc1)c1ccccn1)N1CCCCC1		1.38 µM and 1.56 µM		1.66 µM and 0.543 µM	< 0.001	1.49 µM and 1.46 µM	< 0.001	< 0.001		2.1		2.92	< 0.001		0.323	2.5 µM and 5.35 µM
Cc1cc(Cl)cc2c(N=Nc3ccccc3[N+](=O)[O-])c(O)[nH]c12		> 100 µM		> 100 µM		> 100 µM		82.3		> 100		> 100		> 100		> 100 µM
